Each block holds one molecule with its values, some of them ahead of it. Calls of active or inactive are those of the source.
What was measured:
[1] = biological target: Serine/threonine-protein kinase pim-3 (Homo sapiens, UniProt Q86V86); format: functional;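 note: value obtained as one member of a broad kinase panel profiling effort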
[2] = biological target: Interleukin-1 receptor-associated kinase 1 (Homo sapiens, UniProt P51617); format: functional;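 note: IRAK1 tested as one member of a kinome panel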
Chain of Interleukin-1 receptor-associated kinase 1 (P51617 whole entry): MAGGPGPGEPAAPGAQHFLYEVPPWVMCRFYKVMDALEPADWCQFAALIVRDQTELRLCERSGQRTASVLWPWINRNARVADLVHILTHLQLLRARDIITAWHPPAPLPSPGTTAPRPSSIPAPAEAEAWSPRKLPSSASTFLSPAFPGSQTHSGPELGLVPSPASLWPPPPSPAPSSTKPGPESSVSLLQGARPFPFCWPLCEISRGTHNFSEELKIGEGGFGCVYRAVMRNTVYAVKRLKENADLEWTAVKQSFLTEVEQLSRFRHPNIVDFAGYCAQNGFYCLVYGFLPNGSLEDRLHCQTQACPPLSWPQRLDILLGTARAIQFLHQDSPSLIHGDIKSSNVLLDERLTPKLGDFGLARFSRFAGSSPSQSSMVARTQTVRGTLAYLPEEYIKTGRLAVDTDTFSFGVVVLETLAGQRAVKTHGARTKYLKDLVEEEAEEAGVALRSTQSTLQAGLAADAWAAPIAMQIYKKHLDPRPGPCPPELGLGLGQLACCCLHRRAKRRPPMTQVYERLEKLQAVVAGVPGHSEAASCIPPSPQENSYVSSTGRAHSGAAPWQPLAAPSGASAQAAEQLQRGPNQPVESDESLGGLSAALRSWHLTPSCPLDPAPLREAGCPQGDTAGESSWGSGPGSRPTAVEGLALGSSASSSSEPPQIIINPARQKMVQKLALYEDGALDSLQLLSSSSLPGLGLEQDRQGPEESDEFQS

[3] = biological target: Calcium/calmodulin-dependent protein kinase type II subunit beta (Homo sapiens, UniProt Q13554); format: functional
[4] = biological target: Calcium/calmodulin-dependent protein kinase type II subunit delta (Homo sapiens, UniProt Q13557); format: functional
[5] = biological target: Calcium/calmodulin-dependent protein kinase type II subunit gamma (Homo sapiens, UniProt Q13555); format: functional
Chain of Calcium/calmodulin-dependent protein kinase type II subunit gamma (Q13555 whole entry): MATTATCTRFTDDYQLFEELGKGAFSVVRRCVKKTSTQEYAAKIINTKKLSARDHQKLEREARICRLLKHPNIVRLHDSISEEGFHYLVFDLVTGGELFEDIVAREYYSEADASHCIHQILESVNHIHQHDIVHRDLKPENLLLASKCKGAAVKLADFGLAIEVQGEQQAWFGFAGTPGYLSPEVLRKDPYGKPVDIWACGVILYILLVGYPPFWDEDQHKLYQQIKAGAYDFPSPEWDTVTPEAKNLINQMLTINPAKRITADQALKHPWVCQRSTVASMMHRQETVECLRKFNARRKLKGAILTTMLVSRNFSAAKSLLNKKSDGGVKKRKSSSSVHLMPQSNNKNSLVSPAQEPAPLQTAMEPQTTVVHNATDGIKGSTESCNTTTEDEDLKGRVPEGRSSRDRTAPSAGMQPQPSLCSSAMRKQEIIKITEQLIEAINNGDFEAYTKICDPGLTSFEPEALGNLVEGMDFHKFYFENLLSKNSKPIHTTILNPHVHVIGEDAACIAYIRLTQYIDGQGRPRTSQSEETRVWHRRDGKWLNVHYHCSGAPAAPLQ

[6] = biological target: Serine/threonine-protein kinase pim-1 (Homo sapiens, UniProt P11309); format: functional
Chain of Serine/threonine-protein kinase pim-1 (P11309 whole entry): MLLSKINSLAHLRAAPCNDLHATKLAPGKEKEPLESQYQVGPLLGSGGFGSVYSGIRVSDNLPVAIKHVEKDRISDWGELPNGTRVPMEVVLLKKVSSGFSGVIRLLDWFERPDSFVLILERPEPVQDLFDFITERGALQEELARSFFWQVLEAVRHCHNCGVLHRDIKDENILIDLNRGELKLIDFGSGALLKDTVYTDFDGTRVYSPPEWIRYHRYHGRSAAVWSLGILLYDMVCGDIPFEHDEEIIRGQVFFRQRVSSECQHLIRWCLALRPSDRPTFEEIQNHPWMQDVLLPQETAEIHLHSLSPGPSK

[7] = biological target: DNA dC->dU-editing enzyme APOBEC-3G (Homo sapiens, UniProt Q9HC16); assay: SAR analysis of small molecule inhibitors of APOBEC3G DNA Deaminase via a fluorescence-based single-stranded DNA deaminase assay - Set 2.; format: functional; conditions: read-out: IC50_Mean
Chain of DNA dC->dU-editing enzyme APOBEC-3G (Q9HC16 whole entry): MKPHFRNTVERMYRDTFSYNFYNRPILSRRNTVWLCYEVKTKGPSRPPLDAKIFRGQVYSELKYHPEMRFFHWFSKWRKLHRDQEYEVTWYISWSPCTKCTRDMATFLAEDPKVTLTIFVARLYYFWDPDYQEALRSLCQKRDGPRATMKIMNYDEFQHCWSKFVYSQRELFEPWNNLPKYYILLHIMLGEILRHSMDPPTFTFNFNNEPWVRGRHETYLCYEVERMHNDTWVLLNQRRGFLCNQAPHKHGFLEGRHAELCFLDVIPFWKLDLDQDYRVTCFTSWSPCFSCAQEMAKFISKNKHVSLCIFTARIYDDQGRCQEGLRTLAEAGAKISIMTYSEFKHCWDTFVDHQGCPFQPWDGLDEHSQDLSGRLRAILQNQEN

[8] = biological target: DNA dC->dU-editing enzyme APOBEC-3A (Homo sapiens, UniProt P31941); assay: SAR analysis of small molecule inhibitors of APOBEC3A DNA Deaminase via a fluorescence-based single-stranded DNA deaminase assay - Set 2.; format: functional; conditions: read-out: IC50_Mean
Chain of DNA dC->dU-editing enzyme APOBEC-3A (P31941 whole entry): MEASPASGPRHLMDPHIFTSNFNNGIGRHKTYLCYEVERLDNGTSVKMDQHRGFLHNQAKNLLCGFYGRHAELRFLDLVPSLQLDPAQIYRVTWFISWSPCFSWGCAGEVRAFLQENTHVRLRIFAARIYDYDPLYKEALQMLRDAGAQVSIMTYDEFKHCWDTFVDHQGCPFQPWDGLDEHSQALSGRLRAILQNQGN

[9] = biological target: Melanin-concentrating hormone receptor 1 (Homo sapiens, UniProt Q99705); assay: Late-stage fluorescence-based counterscreen for antagonists of the G-protein coupled receptor 7 (GPR7): cell-based dose response assay to identify antagonists of the melanin-concentrating hormone receptor 1 (MCHR1) Set 5.; format: functional
Chain of Melanin-concentrating hormone receptor 1 (Q99705 whole entry): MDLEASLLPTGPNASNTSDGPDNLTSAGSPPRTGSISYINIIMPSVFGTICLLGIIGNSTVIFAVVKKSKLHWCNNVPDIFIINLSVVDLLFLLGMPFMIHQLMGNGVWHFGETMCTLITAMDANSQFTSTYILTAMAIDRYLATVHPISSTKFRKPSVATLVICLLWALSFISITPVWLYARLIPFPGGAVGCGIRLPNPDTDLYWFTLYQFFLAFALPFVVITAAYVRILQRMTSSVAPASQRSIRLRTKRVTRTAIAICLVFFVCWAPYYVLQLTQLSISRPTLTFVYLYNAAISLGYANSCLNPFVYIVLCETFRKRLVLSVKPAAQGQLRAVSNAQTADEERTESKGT

[10] = biological target: Neuropeptides B/W receptor type 1 (Homo sapiens, UniProt P48145); assay: GPR7 antagonist potency, late-stage follow-up, cell-based, fluorescence, dose response, set 5 (AID 588566); format: functional
Aurora kinase A = Aurora kinase A (Homo sapiens, UniProt O14965); format: functional;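 note: value from the Navigating the Kinome kinase panel profiling, panel entry STK6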
Chain of Aurora kinase A (O14965 whole entry): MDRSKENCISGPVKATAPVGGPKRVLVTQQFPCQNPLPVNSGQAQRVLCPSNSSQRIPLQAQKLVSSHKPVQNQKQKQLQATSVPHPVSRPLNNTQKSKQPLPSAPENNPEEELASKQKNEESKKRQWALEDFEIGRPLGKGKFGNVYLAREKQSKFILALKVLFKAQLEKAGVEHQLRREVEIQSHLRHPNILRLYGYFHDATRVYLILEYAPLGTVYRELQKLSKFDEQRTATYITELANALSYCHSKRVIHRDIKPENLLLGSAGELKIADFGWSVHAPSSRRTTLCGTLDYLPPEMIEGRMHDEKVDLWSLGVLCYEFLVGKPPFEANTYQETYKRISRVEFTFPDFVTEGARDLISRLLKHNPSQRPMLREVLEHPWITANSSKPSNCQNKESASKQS

[11] = HepG2 cell cytotoxicity, dose response, cytotoxicity control for Shn3 inhibitor project, CellTiter-Glo, cherry-picked (AID 624134); format: functional, cell-based
[12] = biological target: Mitogen-activated protein kinase 13 (Homo sapiens, UniProt O15264); format: functional
[13] = biological target: Maternal embryonic leucine zipper kinase (Homo sapiens, UniProt Q14680); format: functional
[14] = biological target: STE20-like serine/threonine-protein kinase (Homo sapiens, UniProt Q9H2G2); format: functional
[15] = biological target: cAMP-dependent protein kinase catalytic subunit PRKX (Homo sapiens, UniProt P51817); format: functional
Chain of cAMP-dependent protein kinase catalytic subunit PRKX (P51817 whole entry): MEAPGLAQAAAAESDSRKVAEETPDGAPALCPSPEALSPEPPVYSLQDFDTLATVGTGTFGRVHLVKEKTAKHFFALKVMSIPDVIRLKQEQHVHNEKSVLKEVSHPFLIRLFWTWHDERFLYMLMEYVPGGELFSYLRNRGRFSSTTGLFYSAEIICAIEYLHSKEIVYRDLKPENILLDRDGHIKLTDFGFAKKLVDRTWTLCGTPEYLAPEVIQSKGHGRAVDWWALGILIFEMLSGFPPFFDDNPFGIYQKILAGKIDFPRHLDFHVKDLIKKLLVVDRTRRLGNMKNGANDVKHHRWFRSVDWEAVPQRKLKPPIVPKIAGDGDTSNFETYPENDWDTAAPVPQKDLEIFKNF

[16] = control 3'UTR Renilla luciferase suppression, dose response, counter-screen for Shn3 inhibitor project, cell-based, Clone20-Shn3RL, cherry-picked (AID 624133); format: functional
[17] = Shn3 3'UTR reporter inhibitors, dose response, cell-based, Clone20 osteoblasts, firefly luciferase, cherry-picked (AID 624132); format: functional;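 note: firefly luciferase luminescence from reporter carrying the Shn3 3'UTR in osteoblasts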
[18] = biological target: Tyrosine-protein kinase Fer (Homo sapiens, UniProt P16591); format: functional;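 note: FER tested as one member of a kinome panel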
Focal adhesion kinase 1 = Focal adhesion kinase 1 (Homo sapiens, UniProt Q05397); format: functional;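 note: measured as one member of a kinome panel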
[19] = biological target: Testis-specific serine/threonine-protein kinase 2 (Homo sapiens, UniProt Q96PF2); format: functional;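 note: part of the Navigating the Kinome panel, target entry STK22B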
Chain of Testis-specific serine/threonine-protein kinase 2 (Q96PF2 whole entry): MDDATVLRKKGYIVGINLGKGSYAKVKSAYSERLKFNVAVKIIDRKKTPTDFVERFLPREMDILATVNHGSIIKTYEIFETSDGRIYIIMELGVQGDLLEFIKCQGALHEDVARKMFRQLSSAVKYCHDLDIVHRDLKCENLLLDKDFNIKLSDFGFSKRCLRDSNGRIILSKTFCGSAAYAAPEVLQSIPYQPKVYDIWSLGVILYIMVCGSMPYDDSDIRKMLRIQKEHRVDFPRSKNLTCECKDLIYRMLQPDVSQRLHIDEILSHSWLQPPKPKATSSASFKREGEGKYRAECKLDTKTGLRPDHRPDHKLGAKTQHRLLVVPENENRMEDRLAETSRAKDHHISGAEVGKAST

[20] = biological target: Serine/threonine-protein kinase pim-2 (Homo sapiens, UniProt Q9P1W9); format: functional;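 note: value comes from a broad kinase panel profiling study in which PIM2 was one of the panel members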
Chain of Serine/threonine-protein kinase pim-2 (Q9P1W9 whole entry): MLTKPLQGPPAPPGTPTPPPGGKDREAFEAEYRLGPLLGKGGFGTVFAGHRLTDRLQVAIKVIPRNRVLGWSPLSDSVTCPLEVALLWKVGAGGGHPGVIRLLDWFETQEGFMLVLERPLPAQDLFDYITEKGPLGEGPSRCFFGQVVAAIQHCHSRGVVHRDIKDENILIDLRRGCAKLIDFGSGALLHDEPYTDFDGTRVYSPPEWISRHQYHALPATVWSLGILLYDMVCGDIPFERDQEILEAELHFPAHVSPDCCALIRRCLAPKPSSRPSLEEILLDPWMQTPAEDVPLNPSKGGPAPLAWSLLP

[21] = biological target: Tyrosine-protein kinase SYK (Homo sapiens, UniProt P43405); format: functional
[22] = HEp-2 cell cytotoxicity, dose response, cytotoxicity control for RSV inhibitor project, HTS (AID 2410); format: functional; conditions: human respiratory syncytial virus
[23] = biological target: Tyrosine-protein kinase ITK/TSK (Homo sapiens, UniProt Q08881); format: functional;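 note: affinity for ITK measured as one member of a broad kinase panel profiling binding across the kinome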
Chain of Tyrosine-protein kinase ITK/TSK (Q08881 whole entry): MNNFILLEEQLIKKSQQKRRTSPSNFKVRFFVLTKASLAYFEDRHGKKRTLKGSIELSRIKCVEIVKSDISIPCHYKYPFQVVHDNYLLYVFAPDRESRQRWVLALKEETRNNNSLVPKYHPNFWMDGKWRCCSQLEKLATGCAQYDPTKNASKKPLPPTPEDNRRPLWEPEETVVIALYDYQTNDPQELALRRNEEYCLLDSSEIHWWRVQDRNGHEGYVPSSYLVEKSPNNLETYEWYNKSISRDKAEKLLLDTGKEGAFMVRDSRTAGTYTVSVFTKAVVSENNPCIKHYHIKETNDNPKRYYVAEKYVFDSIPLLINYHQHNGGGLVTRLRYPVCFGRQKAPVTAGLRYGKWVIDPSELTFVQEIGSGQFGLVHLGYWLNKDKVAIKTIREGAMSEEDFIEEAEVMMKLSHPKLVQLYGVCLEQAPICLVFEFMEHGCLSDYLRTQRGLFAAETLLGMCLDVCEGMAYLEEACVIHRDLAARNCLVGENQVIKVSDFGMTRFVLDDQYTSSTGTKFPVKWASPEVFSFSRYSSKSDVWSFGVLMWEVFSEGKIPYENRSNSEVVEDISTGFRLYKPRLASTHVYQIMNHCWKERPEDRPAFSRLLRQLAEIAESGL

[24] = biological target: cAMP-dependent protein kinase catalytic subunit alpha (Homo sapiens, UniProt P17612); format: functional
[25] = biological target: T1, Tyrosine-protein kinase JAK3 (Homo sapiens, UniProt P52333); format: functional
T1 sequence (P52333 whole entry): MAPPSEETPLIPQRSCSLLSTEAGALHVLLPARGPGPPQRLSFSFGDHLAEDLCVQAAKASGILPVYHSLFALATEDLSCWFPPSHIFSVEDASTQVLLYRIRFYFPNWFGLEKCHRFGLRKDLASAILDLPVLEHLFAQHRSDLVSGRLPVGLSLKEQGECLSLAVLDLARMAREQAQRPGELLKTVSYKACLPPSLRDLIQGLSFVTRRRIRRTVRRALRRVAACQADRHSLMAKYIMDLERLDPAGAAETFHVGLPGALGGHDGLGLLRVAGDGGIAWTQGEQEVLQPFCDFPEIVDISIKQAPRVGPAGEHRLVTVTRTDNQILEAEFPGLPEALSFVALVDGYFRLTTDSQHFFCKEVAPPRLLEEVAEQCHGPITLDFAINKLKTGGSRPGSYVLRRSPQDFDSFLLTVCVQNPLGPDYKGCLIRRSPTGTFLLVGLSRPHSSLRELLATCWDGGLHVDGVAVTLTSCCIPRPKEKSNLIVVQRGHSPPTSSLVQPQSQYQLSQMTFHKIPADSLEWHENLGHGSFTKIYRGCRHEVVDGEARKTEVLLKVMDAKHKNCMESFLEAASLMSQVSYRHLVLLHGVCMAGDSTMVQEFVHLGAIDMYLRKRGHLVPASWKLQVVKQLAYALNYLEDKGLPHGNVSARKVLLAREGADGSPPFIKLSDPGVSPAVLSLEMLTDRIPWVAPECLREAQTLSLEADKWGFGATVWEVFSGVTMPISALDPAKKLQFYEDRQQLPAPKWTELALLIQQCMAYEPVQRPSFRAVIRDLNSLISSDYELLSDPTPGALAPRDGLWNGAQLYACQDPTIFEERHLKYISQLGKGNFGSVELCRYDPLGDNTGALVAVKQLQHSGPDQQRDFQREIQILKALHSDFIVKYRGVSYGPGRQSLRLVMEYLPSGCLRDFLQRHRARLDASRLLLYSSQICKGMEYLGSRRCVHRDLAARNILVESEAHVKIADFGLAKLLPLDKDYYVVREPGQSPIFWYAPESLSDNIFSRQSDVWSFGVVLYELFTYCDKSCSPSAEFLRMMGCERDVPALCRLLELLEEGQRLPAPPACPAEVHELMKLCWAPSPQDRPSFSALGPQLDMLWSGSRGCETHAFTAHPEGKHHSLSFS

[26] = biological target: Testis-specific serine/threonine-protein kinase 1 (Homo sapiens, UniProt Q9BXA7); format: functional

- Ki [1]: 3160 nM (active)
- Ki [2]: 7940 nM (active)
- Ki [3]: 5010 nM (active)
- Ki [4]: 5010 nM (active)
- Ki [5]: 3980 nM (active)
- Ki [6]: 1260 nM (active)
SMILES: CCOC(=O)c1cn(-c2ccc(O)cc2C)c2cc(-c3ccccc3)ccc2c1=O

SMILES: CSc1nnc2n(CCC(C)C)c(=O)c3ccccc3n12
- IC50 [7]: > 99000 nM (inactive)
- IC50 [8]: > 99000 nM (inactive)

- IC50 [9]: > 20000 nM (inactive)
- IC50 [10]: 3190 nM (active)
SMILES: Cn1ccc2ccc(Oc3c(Cl)cnn(Cc4cccc5ccccc45)c3=O)cc21

SMILES: Cc1ccc(-c2nn(C(C)(C)C)c3ncnc(N)c23)cc1
- Ki (Aurora kinase A): > 1580 nM (inactive)
- AC50 [11]: > 70000 nM (inactive)
- Ki [12]: > 7940 nM (inactive)
- Ki [13]: > 1580 nM (inactive)
- Ki [14]: 1580 nM (active)
- Ki [15]: > 1580 nM (inactive)
- AC50 [16]: 1970 nM (active)
- AC50 [17]: 5890 nM (active)
- Ki [18]: > 1580 nM (inactive)
- Ki (Focal adhesion kinase 1): > 1580 nM (inactive)
- Ki [19]: > 1580 nM (inactive)
- Ki [20]: > 1580 nM (inactive)
- Ki [21]: > 1580 nM (inactive)
- CC50 [22]: 9910 nM (active)
- Ki [23]: > 1580 nM (inactive)
- Ki [24]: 1580 nM (active)
- Ki [25]: > 1580 nM (inactive)
- Ki [26]: > 1580 nM (inactive)

From ChEMBL document CHEMBL1201862, “PubChem BioAssay data set” (2004)
